Experimental data published in US9630949B2, “Oxoazetidine derivatives, process for the preparation thereof and use thereof in human medicine and in cosmetics” (GALDERMA RESEARCH & DEVELOPMENT, priority 2008, dated 2017).
Where a name gives a salt, the structure may show the parent alone.

Tests used:
hMC1R = hMC1R (Homo sapiens (Human), UniProt Q01726); test: Transactivation test: melanocortin receptors (pCRE-Luc luciferase reporter), hMC1R; type: cell-based; details: HEK293 transfected with pCRE-Luc and hMC1R; products tested alone (agonist), 6 h incubation; % activity vs NDP-MSH 10 nM; IA: inactive
Procedure: (§1) Transactivation Test: Melanocortin Receptors
(§2) HEK293 lines are transfected with the pCRE-Luc and hMC1R, hMC3R, hMC4R or hMC5R vectors. The cells are cultured at 37° C., 5% CO2, in DMEM medium supplemented with 10% of foetal calf serum.
(§3) In the presence of an activator (agonist), the melanocortin receptor will activate the cAMP pathway which, via the CRE-Luc vector, will result in the synthesis of luciferase. After the addition of a lysis buffer containing a luminescent substrate for luciferase, it will be possible to measure the luminescence proportional to the degree of activation or of inhibition of the receptor.
(§4) The products are solubilized at 10 mM in DMSO. They are tested in the form of dose-response at a final DMSO concentration of 0.1%. The range comprising 10 points and one zero begins at 10 μM with 4-fold dilutions. For testing agonists, the products are tested alone. For determining the behaviour of antagonists, the products of interest are tested in the presence of 1 nM NDP-MSH (reference agonist). The cells are seeded at a rate of 5000 cells per well (384 well plate) in serum-free DMEM medium, and incubated overnight at 37° C., 5% CO2.
(§5) The products and the reference ligand (NDP-MSH) are added the following day, and the plates are again incubated for 6 h at 37° C., 5% CO2. After the addition of lysis buffer containing luciferin, the plates are read on a Top-Count instrument. The results are standardized as % activity using the 100% (cells+NDP-MSH at 10 nM) and 0% (cells alone) controls. An EC50 is calculated for each product using the XLFit software. The results are given in nM.

hMC4R = hMC4R (Homo sapiens (Human), UniProt P32245); test: Transactivation test: melanocortin receptors (pCRE-Luc luciferase reporter), hMC4R; type: cell-based; details: HEK293 transfected with pCRE-Luc and hMC4R; products tested alone (agonist), 6 h incubation; % activity vs NDP-MSH 10 nM; IA: inactive
Procedure: as §1, §2, §3, §4, §5

hMC4R, sequence (P32245 whole entry): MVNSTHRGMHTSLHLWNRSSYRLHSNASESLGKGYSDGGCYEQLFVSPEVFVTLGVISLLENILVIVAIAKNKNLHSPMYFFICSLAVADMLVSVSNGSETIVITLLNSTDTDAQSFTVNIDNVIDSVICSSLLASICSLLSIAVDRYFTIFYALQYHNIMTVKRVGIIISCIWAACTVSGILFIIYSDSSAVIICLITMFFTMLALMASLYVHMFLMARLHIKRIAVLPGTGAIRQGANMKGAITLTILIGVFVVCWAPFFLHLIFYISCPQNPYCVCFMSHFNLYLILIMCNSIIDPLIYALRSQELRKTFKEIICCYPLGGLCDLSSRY
hMC1R, sequence (Q01726 whole entry): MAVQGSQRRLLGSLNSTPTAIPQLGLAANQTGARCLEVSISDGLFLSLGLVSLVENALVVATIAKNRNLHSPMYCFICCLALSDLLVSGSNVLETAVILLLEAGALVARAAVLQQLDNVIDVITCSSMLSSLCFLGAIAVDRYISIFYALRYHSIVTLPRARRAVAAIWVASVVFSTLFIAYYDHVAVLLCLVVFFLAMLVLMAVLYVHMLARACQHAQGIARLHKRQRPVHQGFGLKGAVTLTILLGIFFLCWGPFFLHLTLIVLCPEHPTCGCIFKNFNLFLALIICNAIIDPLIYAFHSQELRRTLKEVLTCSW

| EC50 (hMC1R) | Compound | EC50 (hMC4R) |
| --- | --- | --- |
| 500 nM | CCCC(=O)OC1(c2ccccc2)CN(C(=O)[C@H](Cc2ccc(OC)cc2)NC(=O)[C@H](Cc2c[nH]cn2)NC(=O)c2ccccc2)C1 [Compound 1, 1-[(S)-2-[(S)-2-benzoylamino-3-(1H-imidazol-4-yl)propionylamino]-3-(4-methoxyphenyl)propionyl]-3-phenylazetidin-3-yl ester of butyric acid] |  |
| 250 nM | COc1ccc(C[C@H](NC(=O)[C@H](Cc2c[nH]cn2)NC(=O)c2ccccc2)C(=O)N2CC(O)(c3ccccc3C)C2)cc1 [Compound 4, N-[(S)-1-[(S)-2-(3-hydroxy-3-o-tolylazetidin-1-yl)-1-(4-methoxybenzyl)-2-oxoethylcarbamoyl]-2-(1H-imidazol-4-yl)ethyl]benzamide] | 4000 nM |
| 4000 nM | COc1ccc(C[C@H](NC(=O)[C@H](Cc2c[nH]cn2)NC(=O)c2ccccc2)C(=O)N2CC(OC(C)=O)(c3ccccc3C)C2)cc1 [Compound 5, 1-[(S)-2-[(S)-2-benzoylamino-3-(1H-imidazol-4-yl)propionylamino]-3-(4-methoxyphenyl)propionyl]-3-o-tolylazetidin-3-yl acetate] | 8000 nM |
| 2000 nM | CCCC(=O)OC1(c2ccc(F)cc2)CN(C(=O)[C@H](Cc2ccc(OC)cc2)NC(=O)[C@H](Cc2c[nH]cn2)NC(=O)c2ccccc2)C1 [Compound 6, 1-[(S)-2-[(S)-2-benzoylamino-3-(1H-imidazol-4-yl)propionylamino]-3-(4-methoxyphenyl)propionyl]-3-(4-fluorophenyl)azetidin-3-yl ester of butyric acid] | 8000 nM |
| 8000 nM | COc1ccc(C[C@H](NC(=O)CCc2c[nH]cn2)C(=O)N2CC(O)(C3CCCCC3)C2)cc1 [Compound 10, N-[(S)-2-(3-cyclohexyl-3-hydroxyazetidin-1-yl)-1-(4-methoxybenzyl)-2-oxoethyl]-3-(1H-imidazol-4-yl)propionamide] |  |
| 8000 nM | O=C(CCc1c[nH]cn1)N[C@H](Cc1ccc(Cl)c(Cl)c1)C(=O)N1CC(O)(c2ccccc2)C1 [Compound 12, N-[(R)-1-(3,4-dichlorobenzyl)-2-(3-hydroxy-3-phenylazetidin-1-yl)-2-oxoethyl]-3-(1H-imidazol-4-yl)propionamide] |  |
| 4000 nM | CCCOC1(c2ccccc2C)CN(C(=O)[C@H](Cc2ccc(OC)cc2)NC(=O)CCc2c[nH]cn2)C1 [Compound 21, N-[(S)-1-(4-methoxybenzyl)-2-oxo-2-(3-propoxy-3-o-tolylazetidin-1-yl)ethyl]-3-(1H-imidazol-4-yl)propionamide] |  |
| 1000 nM | COc1ccc(C[C@@H](NC(=O)CCc2c[nH]cn2)C(=O)N2CC(O)(c3ccccc3C)C2)cc1 [Compound 29, N-[(R)-2-(3-hydroxy-3-o-tolylazetidin-1-yl)-1-(4-methoxybenzyl)-2-oxoethyl]-3-(1H-imidazol-4-yl)propionamide] |  |
| 250 nM | CCCCCC1(c2ccc(F)cc2)CN(C(=O)[C@@H](Cc2ccc(OC)cc2)NC(=O)CCc2c[nH]cn2)C1 [Compound 38, N-[(R)-2-[3-(4-fluorophenyl)-3-pentylazetidin-1-yl]-1-(4-methoxybenzyl)-2-oxoethyl]-3-(1H-imidazol-4-yl)propionamide] |  |
| 1000 nM | CCCCCC1(c2ccccc2)CN(C(=O)[C@@H](Cc2ccc(C(F)(F)F)cc2)NC(=O)CCc2c[nH]cn2)C1 [Compound 51, N-[(R)-2-oxo-2-(3-pentyl-3-phenylazetidin-1-yl)-1-(4-trifluoromethylbenzyl)ethyl]-3-(1H-imidazol-4-yl)propionamide] |  |
| 250 nM | CCCCCC1(c2ccc(Cl)c(Cl)c2)CN(C(=O)[C@@H](Cc2ccc(OC)cc2)NC(=O)CCc2c[nH]cn2)C1 [Compound 54, N-[(R)-2-[3-(3,4-dichlorophenyl)-3-pentylazetidin-1-yl]-1-(4-methoxybenzyl)-2-oxoethyl]-3-(1H-imidazol-4-yl)propionamide] |  |

The remaining lines, values behind:

| Compound | EC50 (hMC1R) | EC50 (hMC4R) |
| --- | --- | --- |
| CCCCOC1(c2ccccc2C)CN(C(=O)[C@H](Cc2ccc(OC)cc2)NC(=O)[C@H](Cc2c[nH]cn2)NC(=O)c2ccccc2)C1 [Compound 2, N-[(S)-1-[(S)-2-(3-butoxy-3-o-tolylazetidin-1-yl)-1-(4-methoxybenzyl)-2-oxoethylcarbamoyl]-2-(1H-imidazol-4-yl)ethyl]benzamide] | 30 nM | 8000 nM |
| CCCCOC1(c2ccccc2)CN(C(=O)[C@H](Cc2ccc(OC)cc2)NC(=O)[C@H](Cc2c[nH]cn2)NC(=O)c2ccccc2)C1 [Compound 3, N-[(S)-1-[(S)-2-(3-butoxy-3-phenylazetidin-1-yl)-1-(4-methoxybenzyl)-2-oxoethylcarbamoyl]-2-(1H-imidazol-4-yl)ethyl]benzamide] | 60 nM | 4000 nM |
| COc1ccc(C[C@H](NC(=O)[C@H](Cc2c[nH]cn2)NC(=O)c2ccccc2)C(=O)N2CC(O)(C3CCCCC3)C2)cc1 [Compound 7, N-[(S)-1-[(S)-2-(3-cyclohexyl-3-hydroxyazetidin-1-yl)-1-(4-methoxybenzyl)-2-oxoethylcarbamoyl]-2-(1H-imidazol-4-yl)ethyl]benzamide] | 500 nM | 4000 nM |
| CCCCOC1(c2ccc(F)cc2)CN(C(=O)[C@H](Cc2ccc(OC)cc2)NC(=O)[C@H](Cc2c[nH]cn2)NC(=O)c2ccccc2)C1 [Compound 8, N-[(S)-1-[(S)-2-[3-butoxy-3-(4-fluorophenyl)azetidin-1-yl]-1-(4-methoxybenzyl)-2-oxoethylcarbamoyl]-2-(1H-imidazol-4-yl)ethyl]benzamide] | 120 nM | 4000 nM |
| CCCCCC1(c2ccccc2F)CN(C(=O)[C@@H](Cc2ccc(OC)cc2)NC(=O)CCc2c[nH]cn2)C1 [Compound 43, N-[(R)-2-[3-(2-fluorophenyl)-3-pentylazetidin-1-yl]-1-(4-methoxybenzyl)-2-oxoethyl]-3-(1H-imidazol-4-yl)propionamide] | 30 nM |  |
| CCCCCC1(c2ccccc2Cl)CN(C(=O)[C@@H](Cc2ccc(OC)cc2)NC(=O)CCc2c[nH]cn2)C1 [Compound 44, N-[(R)-2-[3-(2-chlorophenyl)-3-pentylazetidin-1-yl]-1-(4-methoxybenzyl)-2-oxoethyl]-3-(1H-imidazol-4-yl)propionamide] | 30 nM |  |
| CCCCOC1(c2ccccc2C)CN(C(=O)C(Cc2ccc(OC)cc2)NC(=O)CC(CCC)c2c[nH]cn2)C1 (stereo not shown) [Compound 62, N-[2-(3-butoxy-3-o-tolylazetidin-1-yl)-1-(4-methoxybenzyl)-2-oxoethyl]-3-(1H-imidazol-4-yl)hexyramide] |  | 500 nM |
| CCCCOC1(c2ccccc2C)CN(C(=O)C(Cc2ccc(Cl)cc2Cl)NC(=O)CC(CCC)c2c[nH]cn2)C1 (stereo not shown) [Compound 65, N-[2-(3-butoxy-3-o-tolylazetidin-1-yl)-1-(2,4-dichlorobenzyl)-2-oxoethyl]-3-(1H-imidazol-4-yl)hexyramide] |  | 100 nM |
| CCCCOC1(c2ccccc2C)CN(C(=O)C(Cc2ccc(OC)cc2O)NC(=O)CCc2cnc[nH]2)C1 (stereo not shown) [Compound 70, N-[2-(3-Butoxy-3-o-tolylazetidin-1-yl)-1-(2-hydroxy-4-methoxybenzyl)-2-oxoethyl]-3-(3H-imidazol-4-yl)propionamide trifluoroacetate] | 4000 nM |  |
| CCCCOC1(c2ccccc2C)CN(C(=O)[C@@H](Cc2ccc(O)cc2)NC(=O)CCc2cnc[nH]2)C1 [Compound 72, N-[(R)-2-(3-Butoxy-3-o-tolylazetidin-1-yl)-1-(4-hydroxybenzyl)-2-oxoethyl]-3-(3H-imidazol-4-yl)propionamide] | 2000 nM |  |
